According to patent US20120059021A1, “COMPOSITIONS AND METHODS FOR TREATING CANCER AND METHODS FOR PREDICTING A RESPONSE TO SUCH TREATMENTS” (UNIVERSITY OF WASHINGTON, priority 2008, published 2012):
“Also recorded” adds a separate entry of the source. Where a SMILES comes first, the peptide text is derived from it. The star is where a group is joined. Cbz = O=C(OCc1ccccc1)*; CH2F = FC*

What was measured:
ppERK1/2 = test: Immunoblot for dual-phosphorylated ERK1/2 in melanoma cells; assay type: cell-based, human; conditions: for dual-phosphorylated ERK1/2 (ppERK1/2): A375
Source text: By way of non-limiting example, inhibition of ERK signaling can be measured by determining the level of dual-phosphorylated ERK1/2 (ppERK1/2) as described in detail elsewhere herein. In brief, the level of ppERK1/2 can be detected by immunoblot assay.

Wnt/β-catenin signaling [1] = test: β-catenin activated reporter (BAR) luciferase assay in A375 melanoma cells; conditions: for Wnt/β-catenin signaling (BAR activity): A375, in the presence of WNT3A
Source text: By way of non-limiting example, Wnt/β-catenin signaling can be measured using the BAR reporter described in detail elsewhere herein. Briefly, the BAR (β-catenin activated reporter) is a lentiviral plasmid which provides for expression of luciferase in response to Wnt/β-catenin signaling. Output can be measured with an automated luminescence plate reader.
Detailed information on the β-catenin activated reporter (BAR) has been previously described (23). Briefly, the β-catenin activated reporter (pBAR) is a lentiviral plasmid that contains 12 TCF/LEF binding sites (5′-[sequence]-3′) each separated by distinct 5 base-pair linkers upstream of a minimal promoter and the firefly luciferase open reading frame. The reporter also contains a separate PGK promoter that constitutively drives the expression of a puromycin resistance gene for mammalian cell selection. […] PLX4720 was purchased from Symansis (Australia cat# SY-PLX4720). CHIR99021 was purchased from Axon MedChem (Gronigen, Netherlands catalog #Axon1386). Z-VAD-FMK was purchased from R&D systems (Minneapolis, Minn. cat# FMKSP01).
Low throughput BAR reporter assays. Cells were plated in 96-well plates.

AXIN1 = test: Immunoblot of steady-state AXIN1 levels in melanoma cells; assay type: cell-based, human; conditions: for levels of AXIN1 following treatment with WNT3A and PLX4720: A375, 10 μM, 8 hours, WNT3A CM and 2 μM PLX4720
A375 cells = test: Immunoblot of apoptosis markers (cleaved caspase-3, cleaved PARP1) in A375 cells; assay type: cell-based, human
GSK3β = test: Immunoblot for activating auto-phosphorylation of GSK3β in A375 cells; assay type: cell-based, human
ERK1/2 phosphorylation = ERK1/2 phosphorylation in human epidermal melanocytes; assay type: cell-based; conditions: HEMs
Source text: Cell Lines. The human melanoma cell lines A375, A2058 and Me1624 were obtained from Cassian Yee (Fred Hutchinson Cancer Research Institute; Seattle, Wash.). The human melanoma cell lines COLO-829, SKMEL28, SKMEL5 were purchased from ATCC (Manassas, Va.). Human Epidermal Melanocytes, adult, lightly pigmented donor, (HEMa-LP) (C0245C) were purchased from Invitrogen (Carlsbad, Calif.). Stable BAR cell lines were generated as previously described (23). BAR luciferase cell lines were also infected with a lentivirus carrying Renilla luciferase driven by a constitutive EFlalpha promoter.
Cell Culture. The human melanoma lines A375, A2058 were cultured in DMEM supplemented with 5% FBS and 1% antibiotic. The human melanoma lines SK-MEL-5 and SK-MEL-28 were grown in EMEM supplemented with 10% FBS and 1% antibiotic. The human melanoma lines COLO-829 and MEL-624 were grown in RPMI supplemented with 10% FBS and 1% antibiotic HEMa-LP cells were cultured in medium 254 supplemented with 1% HMGS and 1% antibiotic (Invitrogen Carlsbad, Calif.). Synthetic siRNAs were transfected into cultured cells at a final concentration of 20 nM using RNAiMAX (Invitrogen; Grand Island, N.Y.).

A375 = test: qPCR of endogenous Wnt target gene AXIN2, A375; assay type: cell-based, human; conditions: A375, stimulated Wnt/β-catenin signaling
Source text: RNA purification and qRT-PCR analysis. RNA was purified using the RNeasy kit following the manufacturer's protocol (Qiagen; Maryland, Md.). cDNA was synthesized using RevertAid™ M-MuLV Reverse Transcriptase (Fermentas; Ontario, CAN). Light Cycler FastStart DNA Master SYBR Green1 (Roche; Mannheim, Germany) was used for real-time PCR as previously described (53). Quantitative PCR results presented in the manuscript are averages of a minimum of three biologic replicates.

Wnt/β-catenin signaling [2] = test: WNT3A-mediated reporter activity in primary melanocytes; assay type: cell-based, human; conditions: HEMs
β-catenin = test: Immunoblot for β-catenin phosphorylation at Ser33/Ser37/Thr41 in A375 cells; assay type: cell-based, human
BAD and Bim (BCL2L11) = test: Immunoblot of BH3-only proteins BAD and Bim in A375 cells; assay type: cell-based, human; conditions: A375, addition of Z-VAD-FMK, 24 hours
[3] = XAV939 in the presence of U0126 or PLX4720

Cn1cnc2c(F)c(Nc3ccc(Br)cc3Cl)c(C(=O)NOCCO)cc21 [AZD6244, 6-(4-Bromo-2-chloro-phenylamino)-7-fluoro-3-methyl-3H-benzoimidazole-5-carboxylic acid (2-hydroxy-ethoxy)-amide]
dual-phosphorylated ERK1/2 (ppERK1/2) (ppERK1/2): inhibition of ppERK1/2 | Wnt/β-catenin signaling (BAR activity) (Wnt/β-catenin signaling [1]): synergistically enhanced Wnt/β-catenin activation

Oc1nc(-c2ccc(C(F)(F)F)cc2)nc2c1CSCC2 [XAV939]
reversal of enhancement of Wnt/β-catenin signaling by MAPK inhibition (Wnt/β-catenin signaling [1]; [3]): unable to completely reverse the enhancement of Wnt/β-catenin signaling by MAPK inhibition | steady-state levels of AXIN1 (AXIN1; XAV939, absence and presence of rWnt3A): increases steady-state levels of AXIN1 | AXIN1 protein levels (AXIN1; [3]): elevate AX1N1 protein levels to above baseline levels

CCN(CC)CCCC(C)Nc1ccnc2cc(Cl)ccc12 (stereo not drawn) [chloroquine]
levels of AXIN1 following treatment with WNT3A and PLX4720 (AXIN1): not

Cc1c[nH]c(-c2cnc(NCCNc3ccc(C#N)cn3)nc2-c2ccc(Cl)cc2Cl)n1 [CHIR99021, 6-[[2-[[4-(2,4-dichlorophenyl)-5-(5-methyl-1H-imidazol-2-yl)-2-pyrimidinyl]amino]ethyl]amino]-3-pyridinecarbonitrile]
apoptosis (cleaved caspase-3 immunoblot) (A375 cells; A375, 5 μM CHIR99021 and 2 μM PLX4720, 36 hours): enhanced apoptosis in combination with PLX4720 | activating auto-phosphorylation of GSK3B (GSK3β): loss of the activating auto-phosphorylation at Tyr216

CC(C)C[C@@H](C=O)NC(=O)[C@H](CC(C)C)NC(=O)[C@H](CC(C)C)NC(=O)OCc1ccccc1 [MG132] (Cbz-Leu-Leu-Leu-aldehyde)
levels of AXIN1 following treatment with WNT3A and PLX4720 (AXIN1): increased the levels of AXIN1

N#CC(=C(/N)Sc1ccccc1N)/C(C#N)=C(\N)Sc1ccccc1N [U0126, 1,4-diamino-2,3-dicyano-1,4-bis [2-aminophenylthio]butadiene]
dual-phosphorylated ERK1/2 (ppERK1/2) (ppERK1/2): inhibition of ppERK1/2 | ERK1/2 phosphorylation (ppERK1/2; six established melanoma lines harboring the BRAF^V600E mutation): inhibition of ERK1/2 phosphorylation | ERK1/2 phosphorylation (ERK1/2 phosphorylation): inhibits ERK1/2 phosphorylation in a dose-dependent manner | levels of the endogenous Wnt/β-catenin target gene AXIN2 (A375): dose-dependent increase | Wnt/β-catenin signaling (BAR activity) (Wnt/β-catenin signaling [1]): synergistically enhanced Wnt/β-catenin activation; also recorded: dose-dependent increase in stimulated Wnt/β-catenin signaling | steady-state levels of AXIN1 (AXIN1; absence of rWnt3A): slightly decreased | steady-state levels of AXIN1 (AXIN1; presence of rWnt3A): markedly diminished | Wnt/β-catenin signaling (Wnt/β-catenin signaling [2]): inhibited Wnt/β-catenin signaling | activating auto-phosphorylation of GSK3B (GSK3β): loss of the activating auto-phosphorylation of GSK3B at Tyr117 | phosphorylation of β-catenin at GSK3β sites (Ser33/Ser37/Thr41) (β-catenin): decreased phosphorylation of β-catenin

COC(=O)C[C@H](NC(=O)[C@H](C)NC(=O)[C@@H](NC(=O)OCc1ccccc1)C(C)C)C(=O)CF [Z-VAD-FMK] (Cbz-Val-Ala-Asp(OMe)-CH2F)
increase in BimL and BimS with WNT3A and PLX4720 (BAD and Bim (BCL2L11)): not blocked | apoptosis with WNT3A and PLX4720 (A375 cells; A375, Z-VAD-FMK): able to inhibit apoptosis | PARP1 cleavage induced by WNT3A and PLX4720 (A375 cells; A375, addition of Z-VAD-FMK, 24 hours): completely abolished | Wnt/β-catenin activation as measured by BAR (Wnt/β-catenin signaling [1]; A375, Z-VAD-FMK with WNT3A and 2 μM PLX4720, 24 hours): augments Wnt/β-catenin activation | loss of steady-state AXIN1 with WNT3A and PLX4720 (AXIN1; A375, Z-VAD-FMK, 24 hours): did not affect the loss of steady-state AXIN1
